Test results: patent US11220689B2, “Modulators of telomere disease” (Children's Medical Center Corporation, priority 2015, dated 2022)

Assays:
[1] = tested on: human TRF4-2; experiment: Lentiviral shRNA knockdown of TRF4-2 (PAPD5) in fibroblasts and patient-derived cells; assay type: cell-based
Source text: Short-hairpin RNA (shRNA) constructs. Duplex oligonucleotides encoding shRNA targeting human TRF4-2 (ENA accession number: FR872509) and human PARN (NM_002582) or luciferase control (Table 6) were cloned into the pLKO.1-puro vector (Addgene #10878), and pLKO.1-blast vector (Addgene #26655). Lentiviral vector production and transduction of cells.
Lentiviral vectors encoding shRNAs were produced by co-transfection of 293 cells with lentiviral plasmids described above, pCMV_dR8.91 and pCMV_VSV-G, using branched polyethylenimine (Sigma). Supernatants were harvested, filtered and frozen in aliquots on days 3-4 following transfection. For knockdown experiments, cells were transduced with lentivirus and harvested 6 days after selection in puromycin (2 μg/ml for 293 cells; 0.2 μg/ml for iPS cells) or blasticidin (10 μg/ml for 293 cells).

[2] = tested on: human PAPD5; experiment: PAPD5 shRNA knockdown in PARN deficient HEK 293 cells: 3' RACE deep sequencing and Northern blot of TERC; assay type: cell-based; conditions: Northern blot, normal and PARN deficient HEK 293 cells, FIG. 11G, FIG. 18
Source text: short-hairpin RNA (shRNA) constructs. Duplex oligonucleotides encoding shRNA targeting human PAPD5 (ENA accession: FR872509) or luciferase control (Table 13) were cloned into the pLKO.1-puro vector and pLKO.1-blast vectors (Addgene #10878 and #26655). shRNA constructs targeting human PARN (NM_002582) were as described, e.g., in Moon, Diane H., et al. “Poly (A)-specific ribonuclease (PARN) mediates 3 [prime]-end maturation of the telomerase RNA component.” Nature genetics 47.12 (2015): 1482-1488.
Viral vector production and transduction. […]. Lentiviral particles were produced by co-transfection of HEK 293T cells with lentiviral vectors, pCMV_dR8.91 and pCMV_VSV-G. For knockdown and overexpression experiments, HEK 293 cells, fibroblasts and iPSCs were transduced with viral vectors in the presence of protamine sulfate (10 μg/ml) for 8-12 hours. For TERC and DKC1 experiments, transduced HEK 293 cells and fibroblasts were sorted for mCherry or EGFP expression and cultured without further selection. […]
Formaldehyde/agarose gel electrophoresis. […] Quantification was performed using ImageJ. […]
TERC RNA 3′ ends were profiled as described in e.g., Moon, Diane H., et al. “Poly (A)-specific ribonuclease (PARN) mediates 3 [prime]-end maturation of the telomerase RNA component.” Nature genetics 47.12 (2015): 1482-1488. […] Reads mapping to the TERC gene were analyzed using custom developed Perl scripts.

[3] = target: recombinant PAPD5 (Homo sapiens, UniProt Q8NDF8); experiment: Inhibition of recombinant PAPD5 by aminoglycosides; assay type: biochemical; conditions: 10 μM each; FIG. 26
Method: FIG. 26 is a graph showing inhibition of recombinant PAPD5 by aminoglycosides.
Experiments were performed to determine whether aminoglycosides can be used to inhibit PAPD5. 10 μM each of the following are used, (1) Kanamycin B sulfate; (2) Apramycin sulfate; (3) Spectinomycin dihydrochloride pentahydrate; and (4) Ribostamycin sulfate.

[4] = tested on: PAPD5; experiment: CRISPR/Cas9 genome targeting of PAPD5 in PARN mutant iPSCs, lentiviral gRNA; assay type: cell-based, human
Method: (§1) Experiments were performed to determine the requirement of PARN and PAPD5 for viability and function of human stem cells. CRISPR/Cas9 genome targeting was performed to create biallelic null mutations. Lentiviral vectors containing guide RNAs (gRNAs; Table 15) to PARN or PAPD5 were designed and used to transduce normal (WT) and PARN mutant induced pluripotent stems (iPSCs), and the frequency of insertion/deletions (indels) were assessed. […] Populations of stable lentiviral transduced PARN or PAPD5 targeted iPSCs were subcloned to identify lines with biallelic inactivation of PARN or PAPD5. […] In contrast, iPSCs with indels causing frameshifts in PAPD5 and lacking PAPD5 protein could be isolated (FIG. 23). Inactivation of PAPD5 by CRISPR/Cas9 augmented TERC levels in iPSC clones (FIG. 24).

[5] = tested on: PARN; experiment: CRISPR/Cas9 genome targeting of PARN in normal (WT) iPSCs, lentiviral gRNA; assay type: cell-based, human
Method: as §1

[6] = tested on: human PARN; experiment: PARN shRNA knockdown in 293 cells: 3' RACE and deep sequencing of TERC 3' ends; assay type: cell-based; conditions: versus control shRNA, FIG. 8
Method: 600 ng of total RNA was ligated to 5 μM of 5′-adenylated, 3′-blocked adapter (Universal miRNA cloning linker, New England Biolabs, Ipswich, Mass.) with 280 units of T4 RNA ligase truncated KQ (New England Biolabs, Ipswich, Mass.), 25% PEG 8000, and 1 μl RNaseOUT (Life Technologies, Carlsbad, Calif.) in a 20 μl reaction at 25 degrees C. for 16-24 hr. After cleanup with RNA Clean and Concentrator columns (Zymo Research, Irvine, Calif.), followed by DNase treatment, cDNA was synthesized with 5 pmol of universal RT primer and SuperScript III. […] PCR products were directly analyzed run on 2.5% agarose gels to visualize mature and extended TERC transcripts, or subject to Qiaquick PCR purification columns (Qiagen, Hilden, Germany) for library preparation for deep sequencing. […]
RACE products were prepared for deep sequencing using the TruSeq Nano DNA LT Library Prep Kit (Illumina, San Diego, Calif.). […] The quality and quantity of each library was determined on an Advanced Analytical Fragment Analyzer. […] The reads were de-multiplexed with CASAVA 1.8.2 and the read 1 and read 2 fastq files for each sample were generated. For data analysis, the Illumina adapter sequence was first removed from the end of each read using Trimmomatic50. […] The joined-reads from each sample were then mapped to the TERC gene (NR_001566; SEQ ID NO: 99) with the Bowtie2 mapper52, and outputted to a SAM file. […]

Sequence of recombinant PAPD5 (Q8NDF8 whole entry): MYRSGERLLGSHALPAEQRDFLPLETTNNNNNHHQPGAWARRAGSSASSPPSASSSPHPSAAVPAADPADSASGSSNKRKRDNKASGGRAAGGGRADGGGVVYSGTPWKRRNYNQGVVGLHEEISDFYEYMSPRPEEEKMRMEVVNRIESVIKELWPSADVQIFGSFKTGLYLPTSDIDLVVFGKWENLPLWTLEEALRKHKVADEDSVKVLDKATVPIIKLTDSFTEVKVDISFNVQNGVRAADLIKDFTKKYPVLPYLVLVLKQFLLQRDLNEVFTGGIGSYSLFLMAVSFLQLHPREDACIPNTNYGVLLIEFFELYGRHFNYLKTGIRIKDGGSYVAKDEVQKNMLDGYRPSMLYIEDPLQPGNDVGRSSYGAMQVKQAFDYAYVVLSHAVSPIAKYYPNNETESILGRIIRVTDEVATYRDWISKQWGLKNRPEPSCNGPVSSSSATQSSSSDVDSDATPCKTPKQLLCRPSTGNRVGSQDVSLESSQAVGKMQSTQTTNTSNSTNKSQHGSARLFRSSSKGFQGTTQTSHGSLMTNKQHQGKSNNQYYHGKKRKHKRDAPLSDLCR

Compound: PAPD5 shRNA1: lentivirus-encoded shRNA targeting human PAPD5, SEQ ID NO: 83 in Table 13 (CCGGCGATGTTGGAAGGAGTTCATACTCGAGTATGAACTCCTTCCAACATCGTTTTTG)
- TERC levels [1]: restored the TERC levels
- knock-down of PAPD5 [1]: knocked-down PAPD5 to significant levels
- steady state levels of TERC transcripts [2]: increased

Compound: NC[C@H]1O[C@H](O[C@H]2[C@H](O[C@@H]3O[C@H](CO)[C@@H](O)[C@H]3O)[C@@H](O)[C@H](N)C[C@@H]2N)[C@H](N)[C@@H](O)[C@@H]1O.O=S(=O)(O)O [Ribostamycin sulfate]
- inhibition of PAPD5 [3]: can inhibit PAPD5

Compound: gRNA 451: guide RNA targeting PAPD5 for CRISPR/Cas9, SEQ ID NO: 88 (target + PAM), 89 (guide CCTCTTGTTGCTGCTGCCCG; listed as DNA, chemistry not given here)
- frequency of insertion/deletions (indels) ([4]; PAPD5 gRNAs): highest frequency of indels
- PAPD5 transcript levels ([4]; PARN mutant cells, qPCR, FIG. 21A): reductions
- TERC RNA levels ([4]; PARN mutant cells, qPCR, FIG. 21B): increases

Compound: CN[C@@H]1[C@H](O)[C@H](NC)[C@H]2O[C@@]3(O)C(=O)C[C@@H](C)O[C@H]3O[C@@H]2[C@H]1O.Cl.Cl.O.O.O.O.O [Spectinomycin dihydrochloride pentahydrate]
- inhibition of PAPD5 [3]: can inhibit PAPD5

Compound: Apramycin sulfate
- inhibition of PAPD5 [3]: can inhibit PAPD5

Compound: PARN gRNA 91: guide RNA targeting PARN for CRISPR/Cas9, SEQ ID NO: 94 (target + PAM), 95 (guide TGAAGTGTTAGGAGATACAT; listed as DNA, chemistry not given here)
- frequency of insertion/deletions (indels) [5]: high frequency of indels
- PARN RNA transcript levels ([5]; qPCR, FIG. 20A): reductions
- TERC RNA levels ([5]; qPCR, FIG. 20B): reductions

Compound: PAPD5 shRNA2: lentivirus-encoded shRNA targeting human PAPD5, SEQ ID NO: 79 in Table 13 (CCGGGCCACATATAGAGATTGGATACTCGAGTATCCAATCTCTATATGTGGCTTTTTG)
- TERC levels [1]: restored the TERC levels
- knock-down of PAPD5 [1]: knocked-down PAPD5 to significant levels
- steady state levels of TERC transcripts [2]: increased

Compound: NC[C@H]1O[C@H](O[C@H]2[C@H](O)[C@@H](O[C@H]3O[C@H](CO)[C@@H](O)[C@H](N)[C@H]3O)[C@H](N)C[C@@H]2N)[C@H](N)[C@@H](O)[C@@H]1O.O=S(=O)(O)O [Kanamycin B sulfate]
- inhibition of PAPD5 [3]: can inhibit PAPD5

Compound: PARN shRNA1: lentivirus-encoded shRNA directed against PARN (3' untranslated region), SEQ ID NO: 74 (DNA CCGGCCGCACTGTATTTAACTTAATCTCGAGATTAAGTTAAATACAGTGCGGTTTTTG)
- levels of mature TERC [6]: diminished levels of mature TERC
- oligo(A) forms of TERC [6]: increased oligo(A) forms
